Test [1] addresses IRAK4 (Homo sapiens (Human), UniProt Q9NWZ3). Put plainly: IRAK4 ADP-Glo Assay. Type of test: biochemical. As to conditions: MBP substrate. As for the experimental part: The ADP-Glo™ reagents were thawed at ambient temperature. The Kinase Detection Reagent was prepared by mixing kinase detection buffer with the lyophilized kinase detection substrate, and set aside.
A stock volume of 5× Reaction Kinase Buffer was made with a final concentration of 100 mM MgCl2, 200 mM Tris-HCl, and 0.5 mg/ml of BSA, in distilled H2O with a final pH7.4. A 2× working stock volume of Reaction Kinase Buffer was made containing a final concentration of 100 μM DTT.
The components of IRAK4 Enzyme were thawed on ice. Diluted IRAK4 in 1× Kinase Reaction Buffer (diluted from 2× buffer) was prepared at 5.0 ng/μl.
Then diluted 1:5 in 2× Reaction Buffer in a 96 well plate. 1.0 μl was transferred to a 384 well plate in duplicate. […] 1 μl of 1 mg/ml stock solution of MBP substrate was added NOTE: MBP can be combined with ATP mix with equal volume and then added at 2 μl/well. Final reaction volume was 5 μl.
The plate was centrifuged and the reaction mixture was incubated at room temperature for 60 minutes or at 30° C. for 30 minutes.
The reaction was terminated and the remaining ATP was depleted by adding 5 μl of ADP-Glo™ Reagent. The 384-well plate was centrifuged and then the reaction mixture was incubated for another 40 minutes at ambient temperature.
10 μl of the Kinase Detection Reagent was added. The plate was centrifuged and then the reaction mixture was incubated for another 30 minutes at ambient temperature.
The 384-well reaction plate was read using the WALLAC plate reader (Luminescence 0.1s).

Test [2] deals with TNF-α in Human Primary Monocyte-Derived Dendritic Cells. Put plainly: Gardiquimod-Induced TNF-α in Human Primary Monocyte-Derived Dendritic Cells. The format is cell-based. Particulars: Dendritic cell. Here is the method:
Gardiquimod-Induced TNF-α in Human Primary Monocyte-Derived Dendritic Cells
After 2 hours, the media including floating cells was carefully removed and 12 ml of fresh RPMI media (10% FBS) containing GM-CSF (100 ng/ml) and IL-4 (20 ng/ml) were added to the adherent monocytes. The monocytes were allowed to differentiate for 7 days at 37° C., 5% CO2 for 7 days, supplementing with fresh GM-CSF and IL-4 after 3 days. The differentiated dendritic cells (DC) were harvested by centrifugation (1200 rpm/5 min). The DCs were primed at 37° C., 5% CO2 for 24 hours with 50 ng/ml IFN-γ (1000 U/ml) at 50K/well in 100 μl/well of fresh RPMI media (10% FBS) in a white clear bottom 96 well plate.
The primed DCs were pre-incubated with test compound for 1 hour at 37° C., 5% CO2 by adding 100 μl of RPMI media containing 2× concentrated test compound per well (0.5% final DMSO concentration).
DCs were stimulated with Gardiquimod (10 μl per well of 20× concentrated Gardiquimod solution in RPMI media to give a final concentration of 4 μg/ml) at 37° C., 5% CO2 for an additional 6 hours. The supernatant (100 μl/well) was harvested to measure TNF-α by ELISA. […] The chemiluminescence values were entered into Athena (Rigel) for curve fitting, EC50 calculation, and database storage.
(§1) TNF-α ELISA was performed according to the vendor protocol, using 96 Well Flat-Bottom, MaxiSorp Black Immuno plates and 100 μL/well of supernatant. The plates were developed using 100 μL/well of Super Signal ELISA Pico Chemiluminescent Substrate. The plates were read with a luminometer, and the chemiluminescence values were entered into Athena (Rigel) for curve fitting, EC50 calculation, and database storage.

The test system of test [3] is TNF-α in human PBMCs. The test can be described thus: R848-induced TNF-α in human PBMCs Assay. The format is cell-based. Particulars: PBMC. As for the experimental part:
R848-induced TNF-α in human PBMCs Assay
100 μL/well PBMCs (200K/well) were seeded in 96-well flat-bottom tissue culture plates. […] 100 μL/well 2× compound was added to the PBMC in the tissue culture plates. […] The cells were stimulated with R848 for an additional 4 hours at 37° C., 5% CO2. The supernatant (100 μl/well) was harvested to measure TNF-α by ELISA. […] The chemiluminescence values were entered into Athena (Rigel) for curve fitting, EC50 calculation, and database storage.
as §1

The test system of test [4] is IL23p19 in THP-1 Cells. Put plainly: LPS Induced IL23p19 in THP-1 Cells (with IFNγ Primed) Assay. The format is cell-based. As to conditions: Homo sapiens. Here is the method: LPS Induced IL23p19 in THP-1 Cells (with IFNγ Primed) Assay
On day 1, 50K/well THP-1 cells were seeded and primed with IFNγ (50 ng/mL) in 384-well plates for about 18 hours in RPMI media with 10% FBS. […] 50 μL/well 2× compound was added to 50 μL/well THP-1 cells (with IFNγ primed) in duplicate in 384 well tissue culture plates. […] Day 3, after stimulation for 18 hours at 37° C., 5% CO2, the assay plate was centrifuged and 70 μL/well supernatant was harvested. IL-23p19 protein in 70 µL/well of supernatant was measured by sandwich ELISA, and 25 μl/well Cell Titer Glo reagent was added to the remaining cells to measure compound toxicity.
Maxisorp immuno ELISA plates were pre-coated with 25 μL/well of anti-IL-23p19 capture antibody (2.5 ug/mL) in PBS overnight at room temperature. […] 25 μL/well of biotin labeled anti-IL-12(p40/p70) detection antibody (100 ng/mL) in PBS with 1% BSA was added and the plates were incubated at room temperature for 2 hours with shaking. […] The plates were read with a luminometer, and the chemiluminescence values were entered into Athena (Rigel) for curve fitting, EC50 calculation, and database storage.

The mark [5] stands for this setting: Homo sapiens, 4 h, read-out: TNFα (PBMC, R848) (IC50, μM).
Where [6] appears, read: THP-1, 18 h, read-out: IL23 (THP, LPS) (IC50, μM).
[7] abbreviates: IFNγ-primed monocyte-derived dendritic cells, 4 μg/ml Gardiquimod, 6 hours, TNF-α ELISA, read-out: TNFα (DC, GARD) (IC50).

As usually defined, the IC50 is the midpoint of a concentration-inhibition curve.

Read-outs that look alike come from different tables or passages of the source.

IRAK4, sequence (Q9NWZ3 whole entry): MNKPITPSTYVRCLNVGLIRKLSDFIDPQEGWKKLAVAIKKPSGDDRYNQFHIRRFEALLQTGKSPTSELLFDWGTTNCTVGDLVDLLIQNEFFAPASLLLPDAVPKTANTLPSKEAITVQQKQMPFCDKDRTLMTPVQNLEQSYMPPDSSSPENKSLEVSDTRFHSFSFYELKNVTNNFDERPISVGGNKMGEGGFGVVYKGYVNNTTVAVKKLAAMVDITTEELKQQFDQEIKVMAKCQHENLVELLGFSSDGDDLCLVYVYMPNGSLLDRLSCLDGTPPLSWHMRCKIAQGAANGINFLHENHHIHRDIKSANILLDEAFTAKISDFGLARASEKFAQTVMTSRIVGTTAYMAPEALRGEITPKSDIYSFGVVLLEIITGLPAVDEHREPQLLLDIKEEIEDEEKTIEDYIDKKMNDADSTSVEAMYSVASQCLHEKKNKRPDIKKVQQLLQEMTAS

Regarding `CC(C)Oc1cc2c(OC[C@@H]3CCC(=O)N3)ncc(Br)c2cc1C(N)=O` [Compound I-1, (S)-4-bromo-7-isopropoxy-1-((5-oxopyrrolidin-2-yl)methoxy)isoquinoline-6-carboxamide], the half-inhibitory concentration (IC50) is 34 nM in test [1]; 2.64 µM in test [2] (6 h, read-out: TNFα (DC, GARD) (IC50, μM)); 2.61 µM in test [3] (setting [5]); 9.48 µM in test [4] (setting [6]).
Take `CC(C)Oc1cc2c(OC[C@@H]3CC(F)(F)C(=O)N3)ncc(Br)c2cc1C(N)=O` [Compound I-2, (S)-4-bromo-1-((4,4-difluoro-5-oxopyrrolidin-2-yl)methoxy)-7-isopropoxyisoquinoline-6-carboxamide]: the IC50 was 4.4 nM in test [1], 5.34 µM in test [2] (setting [7]), 1.15 µM in test [3] (setting [5]) and 5.53 µM in test [4] (setting [6]).
Take `CC(C)Oc1cc2c(OC[C@@H]3CCC(=O)N3)ncc(C#CC3(O)CCN(C)CC3)c2cc1C(N)=O` [Compound I-14, (S)-4-((4-hydroxy-1-methylpiperidin-4-yl)ethynyl)-7-isopropoxy-1-((5-oxopyrrolidin-2-yl)methoxy)isoquinoline-6-carboxamide]: the IC50 amounted to 5.4 nM in test [1], 7.87 µM in test [2] (setting [7]) and 3.93 µM in test [3] (setting [5]).
For `CC(C)Oc1cc2c(OC[C@@H]3CCC(=O)N3)ncc(C#CC3CCN(C(C)C)CC3)c2cc1C(N)=O` [Compound I-19, (S)-7-isopropoxy-4-((1-isopropylpiperidin-4-yl)ethynyl)-1-((5-oxopyrrolidin-2-yl)methoxy)isoquinoline-6-carboxamide], the IC50 came to 6.7 nM in test [1], 0.618 µM in test [2] (setting [7]) and 0.124 µM in test [4] (setting [6]).
Consider `CC(C)Oc1cc2c(OC[C@@H]3CC(F)(F)C(=O)N3)ncc(C#CC3(O)CCN(C(=O)OC(C)(C)C)CC3)c2cc1C(N)=O` [Compound I-52, tert-butyl (S)-4-((6-carbamoyl-1-((4,4-difluoro-5-oxopyrrolidin-2-yl)methoxy)-7-isopropoxyisoquinolin-4-yl)ethynyl)-4-hydroxypiperidine-1-carboxylate], for which the IC50 in test [2] (setting [7]) came to 0.927 µM; in test [3] (setting [5]) it was 0.338 µM; in test [4] (setting [6]) it was 4.57 µM.
Take `CC(C)Oc1cc2c(OC[C@@H]3CC(F)(F)C(=O)N3)ncc(C#CC3CN(C)C3)c2cc1C(N)=O` [Compound I-64, (S)-1-((4,4-difluoro-5-oxopyrrolidin-2-yl)methoxy)-7-isopropoxy-4-((1-methylazetidin-3-yl)ethynyl)isoquinoline-6-carboxamide]: the figures for the IC50 in test [1], in test [2] (setting [7]) and in test [3] (setting [5]) were 3.6 nM, 0.0286 µM and 0.0215 µM, respectively.
As for `CC[C@@H]1[C@H](F)C(=O)N[C@@H]1COc1ncc(C#CC2CCOCC2)c2cc(C(N)=O)c(OC(C)C)cc12` [Compound I-79, 1-(((2S,3S,4S)-3-ethyl-4-fluoro-5-oxopyrrolidin-2-yl)methoxy)-7-isopropoxy-4-((tetrahydro-2H-pyran-4-yl)ethynyl)isoquinoline-6-carboxamide], the IC50 in test [1] came to 18.1 nM; in test [4] (setting [6]) it was 0.0072 µM.
For `CCO[C@H]1CC[C@H](C#Cc2cnc(OC[C@H]3NC(=O)[C@@H](F)[C@H]3CC)c3cc(OC(C)C)c(C(N)=O)cc23)CC1` [Compound I-80, 4-(((1r,4S)-4-ethoxycyclohexyl)ethynyl)-1-(((2S,3S,4S)-3-ethyl-4-fluoro-5-oxopyrrolidin-2-yl)methoxy)-7-isopropoxyisoquinoline-6-carboxamide], in that order: 390 nM and 0.0105 µM.
Taken in the same sequence, the figures for `CCO[C@H]1CC[C@@H](C#Cc2cnc(OC[C@H]3NC(=O)[C@@H](F)[C@H]3CC)c3cc(OC(C)C)c(C(N)=O)cc23)CC1` [Compound I-81, 4-(((1s,4R)-4-ethoxycyclohexyl)ethynyl)-1-(((2S,3S,4S)-3-ethyl-4-fluoro-5-oxopyrrolidin-2-yl)methoxy)-7-isopropoxyisoquinoline-6-carboxamide] were 463 nM and 0.0163 µM.
Turning to `CC(C)Oc1cc2c(O[C@@H]3CCCNC3)ncc(C#CC3(O)CCCC3)c2cc1C(N)=O` [Compound I-85, (R)-4-((1-hydroxycyclopentyl)ethynyl)-7-isopropoxy-1-(piperidin-3-yloxy)isoquinoline-6-carboxamide], the IC50 in test [2] (setting [7]) worked out at 4.86 µM; in test [3] (setting [5]), 2.08 µM; in test [4] (setting [6]), 1.96 µM.
`CC(C)Oc1cc2c(O[C@@H]3CCCN(C(=O)CC#N)C3)ncc(C#CC3(O)CCNCC3)c2cc1C(N)=O` [Compound I-93, (R)-1-((1-(2-cyanoacetyl)piperidin-3-yl)oxy)-4-((4-hydroxypiperidin-4-yl)ethynyl)-7-isopropoxyisoquinoline-6-carboxamide]: inhibition in test [1] was half-maximal at 23 nM (IC50).
Take `CC(C)Oc1cc2c(O[C@@H]3CCCN(C(=O)CC#N)C3)ncc(C#CC3(O)CCN(C)CC3)c2cc1C(N)=O` [Compound I-94, (R)-1-((1-(2-cyanoacetyl)piperidin-3-yl)oxy)-4-((4-hydroxy-1-methylpiperidin-4-yl)ethynyl)-7-isopropoxyisoquinoline-6-carboxamide]: the IC50 was 56.8 nM in test [1], 8.08 µM in test [3] (setting [5]) and 18.8 µM in test [4] (setting [6]).
Consider `CC(C)Oc1cc2c(O[C@@H]3CCCN(C(=O)OC(C)(C)C)C3)ncc(-c3cnn(C4CC4)c3)c2cc1C(N)=O` [Compound I-107, tert-butyl (R)-3-((6-carbamoyl-4-(1-cyclopropyl-1H-pyrazol-4-yl)-7-isopropoxyisoquinolin-1-yl)oxy)piperidine-1-carboxylate], for which the IC50 was determined as 38.2 µM in test [3] (human PBMCs, 65 ng/mL R848, 4 hours, TNF-α ELISA, read-out: TNFα (PBMC, R848) (IC50)) and 103 µM in test [4] (IFNγ-primed THP-1 cells, 1 μg/mL LPS, 18 hours, IL-23p19 ELISA, read-out: IL23 (THP, LPS) (IC50)).
Take `CC(C)Oc1cc2c(O[C@@H]3CCCN(C(=O)CC#N)C3)ncc(-c3cnn(C4CCNCC4)c3)c2cc1C(N)=O` [Compound I-122, (R)-1-((1-(2-cyanoacetyl)piperidin-3-yl)oxy)-7-isopropoxy-4-(1-(piperidin-4-yl)-1H-pyrazol-4-yl)isoquinoline-6-carboxamide]: the values for the IC50 in test [1], in test [2] (setting [7]) and in test [3] (setting [5]) were 24 nM, 1 µM and 2.16 µM, respectively.

These data come from patent US20230391748A1, “BICYCLIC INHIBITORS OF IRAK” (priority 2022, published 2023).
